Results from US20060073099A1, “Treatment screening methods” (priority 2004, published 2006).

Test system: Macaca mulatta (Rhesus monkey) exposed to a 6 Gy dose of γ-radiation (LD50/30)
Procedure: Treatment of whole body lethal radiation and characterization of mortality surrogate markers. Two groups of 10 Macaca mulatta (Rhesus monkey) were exposed to a 6 Gy dose of γ-radiation from a ^60Co source. This dose is an LD50/30 dose for this species. […] The animals in each group were treated once per day for 5 consecutive days beginning on the day the animals were exposed to radiation. The animals consisted of 12 males and 8 females with a body weight range of about 2.5-5.5 kg at the onset of treatment. The age range was 1.75-5.0 years at the onset of treatment.
Twelve male and eight female rhesus monkeys were assigned to the study. Each group comprised of seven male and three female animals. During the acclimation period, animals were assigned to their respective dose groups by randomization based on the absolute neutrophil count. The average of 3 pretreatment absolute neutrophil counts were used for each animal.
The test article (100 mg/mL AED) and vehicle or control article in aliquots of 10 mL. Test article was an aqueous suspension in vehicle. The vehicle article consists of a solution of sodium shloride (0.9% w/v), carboxymethylcellulose (0.5% w/v), polysorbate 80 (2% v/v), benzalkonium chloride (0.02% v/v) and sodium phosphate (10 mM, pH 6.5). Immediately prior to drawing into a syringe, the test article formulation was briefly vortexed to uniformly distribute sedimented test article. Once drawn into a syringe, the test article was administered within 10 minutes. Just prior to injection, the syringe containing the test article was rotated end-over-end to uniformly disperse the compound.
Whole body radiation. The animals were exposed to ionizing as follows. Dosimetry measurements using phantoms, the dose rate and duration of irradiation and the actual time of irradiation for each individual animal was recorded. Animals were fasted overnight prior to whole-body irradiation and fed upon return to the housing facility.
The animals received a midline treatment dose of 600 cGy. The dose rate of the ^60Co gamma source was about 60 cGy per minute and the actual rate was recorded for each animal. To obtain a homogenous dose distribution, the radiation treatment was divided in two parts. First, the animal received half of the dose by anteroposterior irradiation. The second half of the dose was delivered by posteroanterior irradiation. […] The radiation dose was calibrated using an acrylic phantom placed in the same experimental set up that was used for animal irradiation.

C[C@]12CC[C@H]3[C@@H](CC=C4C[C@@H](O)CC[C@@]43C)[C@@H]1CC[C@@H]2O [3β,17β-dihydroxyandrost-5-ene]
animals survived (600 cGy 60Co whole body γ-irradiation, 15 mg/kg i.m. once per day for 5 consecutive days, first injection 2-3 hours after irradiation, 10 animals, observed to day 40-41): 9 of 10 | days of severe thrombocytopenia (less than 20,000 platelets/μL) experienced collectively by the group (600 cGy whole body irradiation, 15 mg/kg i.m. daily x5, 10 animals, p=0.009 by exact test of homogeneity vs vehicle (51 days)): 32 days | median days of febrile severe neutropenia (600 cGy whole body irradiation, 15 mg/kg i.m. daily x5, 95% CI 0,2, p=0.037 by exact log rank test vs vehicle (median 5 days)): 0 days | Mortality (600 cGy whole body irradiation, 15 mg/kg i.m. daily x5, Fisher's exact test mid p=0.073 vs two combined control groups (45% mortality)): 10% | survivors having febrile severe neutropenia (core body temperature >40.4° C. and absolute neutrophil count less than 500 cells/μL) at some time during the protocol (600 cGy whole body irradiation, 15 mg/kg i.m. daily x5, the one non-survivor did not have the condition): 2 animals
